According to patent US20070243629A1, “High Affinity Ligands for Influenza Virus and Methods for Their Production” (Glykos Finland Oy, priority 2003, published 2007):

Assays:
Type in all cases: binding, human influenza virus A
Design in all cases: key: “+” = binding; “−” = no binding; “(+)” = trace binding
[1] = test system: A/Taiwan/1/86 H1N1
[2] = test system: A/Beijing/262/95 H1N1
[3] = test system: A/New Caledonia/20/99
[4] = test system: A/Kiev/301/94 H3N2
[5] = test system: A/Shangdong/9/93 H3N2
[6] = test system: A/PR/8/34 H1N1
[7] = test system: A/X31, A/Aichi/3/75 H3N2
[8] = test system: A/2/Japan/305/57 H2N2
[9] = test system: A/Hong Kong/8/68 H3N2

Measured: Binding of different human influenza virus A strains to glycolipids

Globoside
−: all assays above
